According to a melting point compilation (Tetko et al.; mined from patent text by program, amines drawn as free bases though some values may be those of a salt):

melting point	SMILES
103 to 112 °C	CC(C)(CCCCCCCCCCC(C)(C)C(Cl)C(=O)O)C(Cl)C(=O)O (stereo not drawn)
101 to 102 °C	CC1(C)N=C(c2ccccc2)CC1c1ccccn1 (stereo not drawn)
244 to 246 °C	O=C(O)c1cn(-c2ccc(F)cc2F)c2cc(Cl)c(F)c(Cl)c2c1=O
77 to 80 °C	CC(N)(C(N)=O)C(F)F (stereo not drawn)
134 to 137 °C	COC(=O)CCn1c(C)c(Cn2ccnc2)c2cc(CCC(=O)O)ccc21
> 300 °C	Cc1cnc2c(NC(=O)c3c(Cl)cccc3Cl)ccc(C)c2c1N1CCN(C)C1=O
155 to 158 °C	CC1(CCCCn2c(=O)oc3ccccc32)Cn2cc([N+](=O)[O-])nc2O1 (stereo not drawn)
> 250 °C	Cc1cc(C)c(-c2cccc3c(O)cc(C)nc23)c(C)c1
170 to 172 °C	CC1=NCCN1Cc1ccc(CCNC(=O)c2ccc(-c3ccc(Cl)cc3)cc2)cc1
186 to 188 °C	FC(F)(F)c1ccc(-c2ccc(Cl)nn2)cc1
118 to 120 °C	Nc1ccc(N2CCC(N3CCOCC3)CC2)c(C(F)(F)F)c1
97 to 101 °C	CCCC(O)c1cc(C(=O)OC)c(NC(C)=O)cc1C(F)(F)F (stereo not drawn)
197 to 199 °C	CNC1C(O)CC2C3CCC4CC(OC(C)=O)CCC4(C)C3CCC21C (stereo not drawn)
153 to 157 °C	COC(=O)[C@]1(C)Oc2ccccc2NC1=O
209 to 211 °C	CCOC(=O)c1cn(N2CCOCC2)c2ccc(CN3CCOCC3)cc2c1=O
70 to 74 °C	CC1=NOCC1(C)S(=O)(=O)n1nc(Cl)nc1-c1ccccc1 (stereo not drawn)
68 to 69 °C	CCCCc1nc2c(C(F)(F)F)cccc2c(O)c1C(=O)OCC
73 to 75 °C	COC(=O)c1ccccc1-c1noc(-c2ccc(OC)cc2)n1
162 to 165 °C	COc1nc(C(=O)NS(=O)(=O)c2c(Cl)cccc2Cl)cs1
218 °C	CCCCCNC(=O)Nc1ccc(N(C)C)cc1C(=O)NCC1CCN(C(c2ccccc2)c2ccccc2)CC1
285 to 287 °C	COc1ccc2cc(-c3nn(C(C)c4oc5ccccc5c(=O)c4-c4cccc(F)c4)c4ncnc(N)c34)ccc2c1 (stereo not drawn)
97 to 100 °C	CON=C(C1=NCCO1)c1ccccc1Oc1ccc(C(F)(F)F)cn1
> 300 °C	O=C(CC(=O)Nc1ccc2c(c1)NC(=O)/C2=C\c1ccc[nH]1)Nc1ccc(F)cc1
98 to 100 °C	COc1cnnc(Cl)c1
155 °C	CCOC(=O)C1=C(C)Nc2ncnc(OC(C)C)c2C1c1ccccc1C(F)(F)F (stereo not drawn)
57 to 59 °C	OCc1c(C(F)(F)F)nn(-c2ccccc2)c1OC(F)F

melting point	SMILES
194 to 240 °C	O=C(O)COc1c(Br)cc(-c2c3ccccc3c(Br)c3oc4ccccc4c23)c(O)c1Br
82 to 83 °C	CCCCC(CC(=O)O)C(=O)O (stereo not drawn)
97 to 98 °C	CCCCCCCCCCNC(=O)N[C@H]1CCCNC(=O)C1
169 to 173 °C	COC(=O)C1=Cc2cccc(C3CCN(S(=O)(=O)c4ccc(C)cc4)CC3)c2CCC1
89 to 90 °C	O=C(O)C1Cc2c([nH]c3ccccc23)CN1C(=S)SCCc1ccccc1 (stereo not drawn)
86.5 to 87 °C	COC(=O)Nc1cc(C(C)(C)C)no1
146 to 150 °C	Cc1ccc2c(c1)C=Cc1oc(C)nc1C2c1cn(C)c(=O)[nH]c1=S (stereo not drawn)
103 °C	COc1cc(-c2ccc(C3C(CCC(O)c4ccc(F)cc4)C(=O)N3c3ccc(F)cc3)cc2)cc(OC)c1OC (stereo not drawn)
175 °C	CCOC(=O)COc1cccc(-c2nnc(Nc3cccc(Br)c3)s2)c1
143 to 145 °C	Clc1ccc(C(=NN=Cc2cccnc2)SSC(=NN=Cc2cccnc2)c2ccc(Cl)cc2)cc1
76.7 °C	N#CC(N)COc1ccc(Oc2ccccc2)cc1 (stereo not drawn)
186 to 187 °C	COc1ccc(Cc2nnc(N[C@H]3CO[C@H](C(C)C)OC3)c3ccccc23)cn1
184 to 186 °C	Cc1ccc(C2(CC(=O)O)CNC(=O)C2)cc1 (stereo not drawn)
227 to 228 °C	Cc1nc2c(N)nc3cc(OCCNC(=O)OC(C)(C)C)ccc3c2n1CC(C)C
159 to 160 °C	COc1snc(OCC#CI)c1C#N
76 to 79 °C	COC(Cn1cncn1)(c1ccc(F)cc1F)C(F)(F)SCCO (stereo not drawn)
189 °C	COc1cccc2c(=O)c3c(O)cc(OCC(O)CO)cc3oc12 (stereo not drawn)
120 to 122 °C	CCC(O)c1cc(C(=O)OC)c(NC(C)=O)cc1C(F)(F)F (stereo not drawn)
179 to 181 °C	CCCCc1oc2ccccc2c1C(=O)Nc1ccc2c(Br)c(OCC(=O)OC)ccc2c1
66 to 67 °C	CC(=O)OCC1(C)OCC2(CO1)COC(C)(COC(C)=O)OC2 (stereo not drawn)
112 °C	O=C(Nc1cn[nH]c1-c1ccc(F)cc1)c1c(F)cccc1F
182 to 184 °C	CC#CC1(O)CCC2C3CCC4=CC(=O)CCC4C3CCC21CCC (stereo not drawn)
237 °C	c1ccc(-c2ncc(-c3nnn[nH]3)cn2)cc1
110 to 120 °C	CS(=O)(=O)c1ccc([C@@H](CC2CCCC2)C(=O)Nc2cnc(C(CO)CO)cn2)cc1Cl
136 °C	COc1ccc2ccc(N3C(=O)c4ccccc4C3OCC(=O)NCCC(C)C)nc2n1 (stereo not drawn)
265 to 268 °C	COC(=O)c1ccc2c(c1)Nc1nccnc1S2

melting point	SMILES
163 °C	COc1c(C)cnc(CSc2nc3cc(C(F)(F)F)ccc3[nH]2)c1C
155 °C	Cc1ccc(Sc2cc(C#N)ccc2C#N)cc1
182 °C	COc1ccc2c(c1)c(O)c(C#N)n2-c1ccccc1
260 °C	O=C(O)C=CC=CC=CC1=Cc2cc(-c3ccccc3)ccc2OC1
105 to 106 °C	O=C(O)Cc1ccc(O)c(Cl)c1Cl
252 to 253 °C	Oc1cccc(-c2ncc3ncc(Cl)cc3n2)c1
270 to 271 °C	O=C(c1cc2cc3[nH]c(=O)oc3cc2[nH]1)N1CCC(Cc2ccccc2)CC1
193 to 195 °C	Cc1c(CC(=O)O)c2cc(O)ccc2n1C(=O)c1ccc(OC(F)(F)F)cc1
181 to 183 °C	CC1(C)COC(=O)N1c1nc(-c2cccc(C#N)c2)cs1
79 °C	Cc1c(CCCCCCCCCCCC(=O)O)cccc1C(=O)c1ccc(Cl)cc1
239 °C	NCC1CCN(CC(=O)Nc2cccc3c2C(=O)c2c-3n[nH]c2-c2ccc(N3CCNCC3)cc2)CC1
53 to 58 °C	CNC(=O)C(C(F)F)C(C)(C)C=NO (stereo not drawn)
140 to 142 °C	O=C(Cc1ccccc1C(F)(F)F)c1c(O)c2cccnc2n(-c2ccccc2)c1=O
37 to 38 °C	CCNCCCCCC(C)O (stereo not drawn)
165 to 166 °C	CS(=O)(=O)Nc1cc2occ(CO)c(=O)c2cc1Oc1ccccc1
124 to 126 °C	CC(=O)N1CCc2cc(CC(C)Br)ccc21 (stereo not drawn)
167 to 169 °C	COc1ccc([N+](=O)[O-])c(CS(=O)(=O)c2ccccc2)c1
160 °C	CCCCC1(C2CCCC2)Cc2cc(O)c(Cl)c(Cl)c2C1=O (stereo not drawn)
198 to 201 °C	CCCc1nc(C(C)O)c(C(=O)O)n1Cc1ccc(-c2ccccc2-c2nnn[nH]2)cc1 (stereo not drawn)
115 °C	CC1(C)[C@@H](C=C(c2ccccc2)c2ccccc2)[C@@H]1C(=O)O (relative stereo)
95 to 96 °C	Cc1cc2ccccc2n1-c1ccc(OCc2ccccc2)cc1
117 to 119 °C	Cc1cc(Cl)cc2nc3c(=O)[nH][nH]c(=O)c3c(O)c12
56 to 56.5 °C	C=C(C)C(=O)N(SC1CCCCC1)c1ccccc1
151 to 155 °C	O=C1NCCCN1Cc1ccc2ccccc2c1
114 to 116 °C	CC(C)(C)OC(=O)N1CCC(CCOc2ccc(C=NO)cc2)CC1
291 to 295 °C	CNc1ncc2c(-c3cccc(Cl)c3)cc(/C=C/C(=O)O)c(OC)c2n1

melting point	SMILES
163 to 165 °C	CC(=O)c1ccc2c(c1)C(=O)c1ccccc1CN2Cc1ccccc1
163 to 164 °C	COC(=O)C(C(=O)OC)c1ccc([N+](=O)[O-])cc1C(=O)O
150 °C	COc1ccc(C=CC(=O)N(C)O)cc1OC
135 to 136 °C	CS(=O)(=O)c1nccc(-n2cncn2)n1
214 to 215 °C	NC(=O)N1C(=O)C(=C(OC(=O)C=Cc2ccccc2)c2cccs2)c2cc(F)c(Cl)cc21
221 to 223 °C	CN(C)S(=O)(=O)c1cn(C)c2cc(C(F)(F)F)ccc2c1=O
257 °C	O=C(Nc1cccc(S(=O)(=O)NCc2cccnc2)c1)c1cnn2c(C(F)(F)F)cc(-c3ccc(C(F)(F)F)cc3)nc12
118 °C	COc1cc(C(C)=O)ccc1OCCCCCN1CCC(C(O)(c2ccc(F)cc2)c2ccc(F)cc2)CC1
175 to 178 °C	CN1C(=O)[C@@](NC(=O)Nc2cccc(CNc3nnn[nH]3)c2)(C2CCCCC2)N=Cc2ccccc21
149 to 151 °C	O=[N+]([O-])c1ccc2c(c1)C(O)Cc1ccc(F)cc1S2 (stereo not drawn)
93 to 95 °C	COC(=O)c1cn(CCO)nc1[N+](=O)[O-]
145 to 147 °C	CON1C(C)(C)CC(OC(=O)N=NC(=O)OC2CC(C)(C)N(OC)C(C)(C)C2)CC1(C)C
113 to 115 °C	COc1ccccc1N1CCN(CCCCc2c[nH]c3ccccc23)CC1
200 to 205 °C	FC(F)(F)c1cccc(-c2ccnc(S)n2)c1
82.5 to 83.5 °C	CCCCCc1cc(C(=O)OC)ccc1O
183 to 185 °C	CC(C)CC1(C(CCN2C(=O)c3c(F)c(F)c(F)c(F)c3C2=O)C(=O)NO)CCN(Cc2ccccc2)C1=O (stereo not drawn)
150 to 152 °C	Cc1oc(=O)oc1Cn1nnc(-c2ccnc(-c3nnn(Cc4oc(=O)oc4C)n3)c2)n1
148 to 150 °C	CSC(=NCCSCc1[nH]cnc1C)NC#N
150 to 151 °C	Oc1cc(-c2ccccc2)on1
120 to 122 °C	Nc1cc(F)ccc1C(=O)Nc1ccccc1
188 to 190 °C	O=C(NC(CO)(CO)CO)c1ccc(C(=O)NC(CO)(CO)CO)cc1
183 °C	CC(C)(C)c1ccc(C(=O)N[C@H]2CC[C@H](CCN3CCN(c4nccc5c4OCC5)CC3)CC2)cc1
62 to 64 °C	N#CCC#CC1(c2ccc(Cl)cc2)CC1
255 to 257 °C	Cc1ccc(C(=O)C2=C(O)C(=O)N(c3ccc(C(F)(F)F)cn3)C2c2ccc(C(C)C)cc2)cc1 (stereo not drawn)

SMILES	melting point
CCCCCCC(C)(C)c1ccc(C2=CCCN(C)C2)c(O)c1	126 to 127 °C
